Test results as given in publication PMC7005262, “Complete structure of the chemosensory array core signalling unit in an E. coli minicell strain” (Nature Communications, 2020).

Biological target: T1, Tsr (Escherichia coli, UniProt P02942)
T1 construct: mixed adaptational modification states, CheR and CheB present; read-out by plasmid-borne CheY-YFP/CheZ-CFP
Assay: in vivo FRET kinase assay (CheY-YFP/CheZ-CFP), inhibition of receptor-coupled CheA activity, multi-site Hill fit
Assay type: cell-based
Settings: intact WM4196 minicells, motility buffer pH 7.0, adaptation enzymes CheR and CheB present; attractant at the periplasmic domain; read-out: K1/2

T1 sequence (P02942 whole entry): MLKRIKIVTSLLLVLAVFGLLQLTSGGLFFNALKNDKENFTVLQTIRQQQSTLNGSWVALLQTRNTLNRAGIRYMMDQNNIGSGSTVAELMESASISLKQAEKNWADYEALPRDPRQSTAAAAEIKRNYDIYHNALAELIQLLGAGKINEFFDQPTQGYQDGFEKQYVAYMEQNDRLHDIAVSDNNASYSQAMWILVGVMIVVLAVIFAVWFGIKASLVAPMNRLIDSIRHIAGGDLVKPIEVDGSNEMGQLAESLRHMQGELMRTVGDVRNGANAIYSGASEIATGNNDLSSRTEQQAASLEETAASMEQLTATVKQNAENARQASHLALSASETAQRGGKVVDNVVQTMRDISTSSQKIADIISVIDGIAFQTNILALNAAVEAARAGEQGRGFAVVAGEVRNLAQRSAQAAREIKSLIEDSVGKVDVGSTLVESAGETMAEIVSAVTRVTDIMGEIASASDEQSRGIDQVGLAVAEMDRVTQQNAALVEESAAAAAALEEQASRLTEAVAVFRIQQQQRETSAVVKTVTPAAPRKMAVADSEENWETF

N[C@@H](CO)C(=O)O [serine]
EC50: 400 nM
